Data taken from patent US20250129056A1, “PROCESS FOR PREPARING HISTONE DEMETHYLASE INHIBITORS” (Celgene Corporation, priority 2021, published 2025).
Converted amounts (≈) assume the structure as drawn.

Columns and labels:
[1] = Solubility observations in water and common organic solvents; format: physicochemical
[2] = system: KDM4 family of histone demethylases; conditions: cited from earlier work
[3] = Solubility of Compound 12 in common solvents (Table 5); format: physicochemical; conditions: organic solvent or mixture
From the text: The crystallization of Compound 12 also required optimization. Studies were undertaken to find the optimal solvent system of iPrOH/MeTHF.

SMILES: CC(C)c1ccc(N(C)c2ccc3c(c2)OCC[C@H]3CNc2cnccc2C(=O)O)cc1 [Compound 8, 3-({[(4R)-7-{methyl[4-(propan-2-yl)phenyl]amino}-3,4-dihydro-2H-1-benzopyran-4-yl]methyl}amino)pyridine-4-carboxylic acid]
- solubility ([1]; in most common solvents): poor
- solubility ([1]; in water (low to neutral pH) and most common organic solvents, free acid): undetectable
- solubility ([1]; in water and most common organic solvents): poor
- inhibition of the KDM4 family of histone demethylases [2]: selective inhibitor

SMILES: CC(C)(C)OC(=O)NC[C@@H]1CCOc2cc(Br)ccc21 [Compound 11]
- solubility ([1]; in a number of common organic solvents including heptane): high

SMILES: CC(C)c1ccc(N(C)c2ccc3c(c2)OCC[C@H]3CNC(=O)OC(C)(C)C)cc1 [Compound 12]
- solubility ([3]; solvent 1-PrOH): 5 mg/mL (≈ 12.2 mM)
- solubility ([3]; solvent 2-MeTHF): 63 mg/mL (≈ 153 mM)
- solubility ([3]; solvent CPMe): 26 mg/mL (≈ 63.3 mM)
- solubility ([3]; solvent DMAc): 77 mg/mL (≈ 188 mM)
- solubility ([3]; solvent EtOAc): 22 mg/mL (≈ 53.6 mM)
- solubility ([3]; solvent HOAC): 20 mg/mL (≈ 48.7 mM)
- solubility ([3]; solvent IPA): 3 mg/mL (≈ 7.31 mM)
- solubility ([3]; solvent IPAc): 14 mg/mL (≈ 34.1 mM)
- solubility ([3]; solvent MEK): 28 mg/mL (≈ 68.2 mM)
- solubility ([3]; solvent MIBK): 17 mg/mL (≈ 41.4 mM)
- solubility ([3]; solvent MTBE): 11 mg/mL (≈ 26.8 mM)
- solubility ([3]; solvent MeCN): 5 mg/mL (≈ 12.2 mM)
- solubility ([3]; solvent MeOH): 3 mg/mL (≈ 7.31 mM)
- solubility ([3]; solvent THF): ≥ 150 mg/mL
- solubility ([3]; solvent toluene): 27 mg/mL (≈ 65.8 mM)
- solubility ([1]; in a number of common solvents): low
